Legend:
JN-DSRCT cell line = conditions: JN-DSRCT cells; at high levels of DHT
[1] = tested on: LNCaP prostate cancer cell line; conditions: LNCaP cells; at high levels of DHT
[2] = tested on: TC-71 Ewing sarcoma cells; conditions: TC-71 ES cells, lack AR expression

Row | SMILES | proliferation on stimulation with AR agonist (JN-DSRCT cell line) | proliferation on stimulation with AR agonist [1] | proliferation on stimulation with AR agonist [2]
1 | C[C@]12CCC(=O)C[C@@H]1CC[C@@H]1[C@@H]2CC[C@]2(C)[C@@H](O)CC[C@@H]12 [DHT, 5a-dihydrotestosterone] | increased proliferation | increased proliferation | no effect and not
2 | C[C@]12CC[C@H]3[C@@H](CCC4=CC(=O)CC[C@@]43C)[C@@H]1CC[C@@H]2O [testosterone] | increased proliferation | increased proliferation | no effect
